Data: patent publication US11773093B1, “N-(pyrimido[2,3-b]indol-7-yl)acetamide compounds as antibacterial agents” (KING FAISAL UNIVERSITY, priority 2023, dated 2023)
Values after ≈ are worked out from the molar mass of the structure shown. Read-outs that look alike come from different tables or passages of the source.

Legend:
[1] = test system: Klebsiella pneumonia MTCC 618; experiment: In vitro antibacterial activity (MIC, CLSI M07-A10 dilution); assay type: cell-based; settings: Klebsiella pneumoniae, MTCC618
[2] = test system: Enterococcus faecium ATCC 51559 (VRE resistant); experiment: as above; assay type: cell-based
[3] = test system: Enterococcus faecium ATCC 35667; experiment: as above; assay type: cell-based; settings: ATCC35667
[4] = test system: Bacillus subtilis MTCC 441; experiment: as above; assay type: cell-based; settings: MTCC441
[5] = test system: Pseudomonas aeruginosa MTCC 741; experiment: as above; assay type: cell-based; settings: MTCC741
[6] = test system: Escherichia coli MTCC 443; experiment: as above; assay type: cell-based; settings: MTCC443
[7] = test system: Staphylococcus epidermidis; experiment: as above; assay type: cell-based
[8] = test system: Staphylococcus aureus ATCC 29213; experiment: as above; assay type: cell-based; settings: ATCC29213
DNA gyrase from E. coli = molecular target: T1, DNA gyrase from E. coli (Escherichia coli, UniProt P0AES4+P0AES6); experiment: Inhibitory activities on E. coli DNA Gyrase (Inspiralis assay); assay type: biochemical
T1 construct: purchased Inspiralis
Protocol: Inhibitory potencies were investigated utilizing the Inspiralis assay on streptavidin-coated 96-well microtiter plates. First, the plates were rehydrated with buffer (20 mM Tris-HCl with pH 7.6, 0.01% w/v BSA, 0.05% v/v Tween 20, 137 mM NaCl) and the biotinylated oligonucleotide was then immobilized. After washing off the unbound oligonucleotide, the enzyme test was performed. The reaction volume of 30 μL in buffer (35 mM Tris×HCl with pH 7.5, 4 mM MgCl2, 24 mM KCl, 2 mM DTT, 1.8 mM spermidine, 1 mM ATP, 6.5% w/v glycerol, 0.1 mg/mL albumin) contained 1.5 U of DNA gyrase from E. coli, 0.75 μg of relaxed pNO1 plasmid, and 3 μL solution of the inhibitor in 10% DMSO and 0.008% Tween 20. Reaction solutions were incubated at 37° C. for 30 min. After that, the TF buffer (50 mM NaOAc with pH 5.0, 50 mM NaCl and 50 mM MgCl2) was added to terminate the enzymatic reaction. After additional incubation for 30 min at rt, during which biotinoligonucleotide-plasmid triplex was formed, the unbound plasmid was washed off using TF buffer and SybrGOLD in T10 buffer (10 mM Tris HCl with pH 8.0 and 1 mM EDTA) was added. The fluorescence was measured with a microplate reader (BioTek Synergy H4, excitation: 485 nm, emission: 535 nm). Initial screening was done at 100 or 10 μM concentration of inhibitors. […] GraphPad Prism software was used to calculate the IC50 values. […]

[9] = test system: Mycobacterium tuberculosis H37Rv strain; experiment: Anti-tubercular properties, alamar blue microplate MIC; assay type: cell-based; settings: 168 h, M. tuberculosis H37Rv, seven days incubation at 37° C., read-out: anti-mycobacterial activity (MIC)
[10] = test system: Staphylococcus aureus ATCC BAA-1556 (MERSA resistant); experiment: In vitro antibacterial activity (MIC, CLSI M07-A10 dilution); assay type: cell-based; settings: ATCCBAA1556

T1 sequence (P0AES4 whole entry, one chain of several): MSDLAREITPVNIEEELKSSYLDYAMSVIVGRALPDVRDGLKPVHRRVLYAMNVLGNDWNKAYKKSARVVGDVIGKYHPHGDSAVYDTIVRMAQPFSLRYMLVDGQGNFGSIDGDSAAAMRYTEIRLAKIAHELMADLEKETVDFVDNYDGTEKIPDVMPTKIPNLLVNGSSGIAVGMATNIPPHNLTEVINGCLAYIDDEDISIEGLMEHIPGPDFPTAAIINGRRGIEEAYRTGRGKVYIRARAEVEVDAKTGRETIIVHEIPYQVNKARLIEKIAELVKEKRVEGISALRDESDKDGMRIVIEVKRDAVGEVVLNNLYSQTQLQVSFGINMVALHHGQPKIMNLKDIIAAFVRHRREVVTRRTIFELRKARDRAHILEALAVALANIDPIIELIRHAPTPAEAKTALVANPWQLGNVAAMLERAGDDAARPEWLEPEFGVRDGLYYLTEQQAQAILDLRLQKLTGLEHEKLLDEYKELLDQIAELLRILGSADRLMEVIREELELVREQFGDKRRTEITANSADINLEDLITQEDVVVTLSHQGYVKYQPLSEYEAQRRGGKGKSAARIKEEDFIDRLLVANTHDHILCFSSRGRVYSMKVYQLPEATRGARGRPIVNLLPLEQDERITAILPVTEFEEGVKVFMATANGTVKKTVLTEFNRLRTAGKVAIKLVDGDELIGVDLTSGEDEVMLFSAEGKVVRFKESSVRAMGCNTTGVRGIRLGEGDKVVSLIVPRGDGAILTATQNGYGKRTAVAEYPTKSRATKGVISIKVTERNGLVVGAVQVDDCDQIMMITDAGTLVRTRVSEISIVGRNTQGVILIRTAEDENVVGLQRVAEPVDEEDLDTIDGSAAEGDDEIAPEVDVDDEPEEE

| Compound | MIC [1] [µg/mL] | MIC ([2]; Enterococcus faecium) [µg/mL] | MIC ([3]; Enterococcus faecium) [µg/mL] | MIC ([4]; Bacillus subtilis) [µg/mL] | MIC ([5]; Pseudomonas aeruginosa) [µg/mL] | MIC [6] [µg/mL] | MIC [7] [µg/mL] | MIC ([1]; Klebsiella pneumonia MTCC 618, read-out: MIC) [µg/mL] | MIC ([2]; Enterococcus faecium ATCC 51559 (VRE resistant), read-out: MIC) [µg/mL] | MIC ([3]; Enterococcus faecium ATCC 35667, read-out: MIC) [µg/mL] | MIC ([4]; Bacillus subtilis MTCC 441, read-out: MIC) [µg/mL] | MIC [8] [µg/mL] | IC50 (DNA gyrase from E. coli) [nM] | MIC [9] [µg/mL] | MIC [10] [µg/mL] | MIC ([5]; Pseudomonas aeruginosa MTCC 741, read-out: MIC) [µg/mL] |
| --- | --- | --- | --- | --- | --- | --- | --- | --- | --- | --- | --- | --- | --- | --- | --- | --- |
| CN[C@H](CC(C)C)C(=O)N[C@H]1C(=O)N[C@@H](CC(N)=O)C(=O)N[C@H]2C(=O)N[C@H]3C(=O)N[C@H](C(=O)N[C@H](C(=O)O)c4cc(O)cc(O)c4-c4cc3ccc4O)[C@H](O)c3ccc(c(Cl)c3)Oc3cc2cc(c3O[C@@H]2O[C@H](CO)[C@@H](O)[C@H](O)[C@H]2O[C@H]2C[C@](C)(N)[C@H](O)[C@H](C)O2)Oc2ccc(cc2Cl)[C@H]1O [Vancomycin, reference compound] | > 128 | > 128 | 0.5 (≈ 0.345 µM) | 0.5 (≈ 0.345 µM) | > 128 | – | – | – | – | – | – | – | – | – | – | – |
| CC(=O)Nc1ccc2c(c1)[nH]c1nccc(Nc3ccc(C(=O)O)cc3)c12 [Example 8, 4-((7-acetamido-9H-pyrido[2,3-b]indol-4-yl)amino)benzoic acid] | – | – | – | – | – | 1 (≈ 2.77 µM) | 0.25 (≈ 0.694 µM) | 1 (≈ 2.77 µM) | 1 (≈ 2.77 µM) | 0.5 (≈ 1.39 µM) | 0.25 (≈ 0.694 µM) | 0.25 (≈ 0.694 µM) | 125 | 8 (≈ 22.2 µM) | 4 (≈ 11.1 µM) | 0.25 (≈ 0.694 µM) |
